In patent US9260429B2, “Pyrido[3,4-B]indoles and methods of use” (Medivation Technologies, Inc., priority 2008, dated 2016):

Assays:
[1] = biological target: T1, human recombinant serotonin (5-Hydroxytryptamine) 5-HT2A receptor (Homo sapiens, UniProt P28223); assay: Serotonin 5-HT2A radioligand binding ([3H]Ketanserin); conditions: 1 h; read-out: Percent Inhibition of ligand binding Serotonin (1 μM ligand concentration) 5-HT2A
T1 construct: expressed in transfected cells; host or cells: CHO-K1 cells
Description: To evaluate in radioligand binding assays the activity of compounds of the invention, human recombinant serotonin (5-Hydroxytryptamine) 5-HT2A receptor expressed in Chinese hamster ovary (CHO-K1) cells (Bonhaus, D. W. et al. Br. J. Pharmacol. 115:622, 1995; Saucier, C. and Albert, P. R., J. Neurochem. 68:1998, 1997) in a 50 mM Tris-HCl buffer, pH 7.4, was used. Compounds of the invention were incubated with 0.5 nM [^3H]Ketanserin for 60 minutes at 25° C. Non-specific binding was estimated in the presence of 1 μM Mianserin. Receptor proteins were filtered and washed, the filters were then counted to determine [^3H]Ketanserin specifically bound. Compounds were screened at 1 μM or lower, using 1% DMSO as vehicle. Biochemical assay results are presented as the percent inhibition of specific binding in Table 5.

[2] = biological target: T2, human recombinant histamine H2 receptor (Homo sapiens, UniProt P25021); assay: Histamine H2 radioligand binding ([125I]Aminopotentidine); conditions: 1 μM; inhibition of specific [125I]Aminopotentidine binding; read-out: Binding data (Percentage Inhibition) Histamine Binding (1 μM) H2
T2 construct: expressed in transfected cells; host or cells: CHO-K1 cells
Description: To evaluate in radioligand binding assays the activity of compounds of the invention, human recombinant histamine H2 receptor expressed in Chinese hamster ovary (CHO) K1 cells (Ruat, M., Proc. Natl. Acad. Sci. USA. 87(5):1658, 1990) in a 50 mM Phosphate buffer, pH 7.4 was used. Compounds of the invention were incubated with 0.1 nM [^125I]Aminopotentidine for 120 minutes at 25° C. Non-specific binding was estimated in the presence of 3 μM Tiotidine. Receptor proteins were filtered and washed, the filters were then counted to determine [^125I]Aminopotentidine specifically bound. Compounds were screened at 1 μM or lower, using 1% DMSO as vehicle. Biochemical assay results are presented as the percent inhibition of specific binding in Table 3.

[3] = biological target: T3, human recombinant dopamine D2L receptor (Homo sapiens, UniProt P14416); assay: Dopamine D2L radioligand binding ([3H]Spiperone); conditions: 2 h, 1 μM ligand conc.; read-out: Percent Inhibition of ligand binding Dopamine (1 μM ligand conc.) D2L
T3 construct: expressed in transfected cells; host or cells: CHO cells
Description: To evaluate in radioligand binding assays the activity of compounds of the invention, human recombinant dopamine D2L receptor expressed in Chinese hamster ovary (CHO) cells (Grandy, D. K. et al. Proc. Natl. Acad. Sci. USA. 86:9762, 1989; Hayes, G. et al., Mol. Endocrinol. 6:920, 1992) in a modified Tris-HCl buffer (50 mM Tris-HCl, pH 7.4, 1.4 mM Ascorbic Acid, 0.001% BSA, 150 mM NaCl) was used. Compounds of the invention were incubated with 0.16 nM [^3H]Spiperone for 120 minutes at 25° C. Non-specific binding was estimated in the presence of […] Haloperidol. Receptor proteins were filtered and washed, the filters were then counted to determine [^3H]Spiperone specifically bound. Compounds were screened at 1 μM or lower, using 1% DMSO as vehicle. Biochemical assay results are presented as the percent inhibition of specific binding in Table 4.

[4] = biological target: T4, human recombinant serotonin (5-Hydroxytryptamine) 5-HT6 receptor (Homo sapiens, UniProt P50406); assay: Serotonin 5-HT6 radioligand binding ([3H]LSD); conditions: 2 h; read-out: Percent Inhibition of ligand binding Serotonin (1 μM ligand concentration) 5-HT6
T4 construct: expressed in transfected cells; host or cells: human HeLa cells
Description: To evaluate in radioligand binding assays the activity of compounds of the invention, human recombinant serotonin (5-Hydroxytryptamine) 5-HT6 receptor expressed in human HeLa cells (Monsma, F. J. Jr. et al., Mol. Pharmacol. 43:320, 1993) in a modified Tris-HCl buffer (50 mM Tris-HCl, pH 7.4, 150 mM NaCl, 2 mM Ascorbic Acid, 0.001% BSA) was used. Compounds of the invention were incubated with 1.5 nM [3H]Lysergic acid diethylamide (LSD) for 120 minutes at 37° C. Non-specific binding was estimated in the presence of […] Serotonin (5-HT). Receptor proteins were filtered and washed, the filters were then counted to determine [3H]LSD specifically bound. Compounds were screened at 1 μM or lower, using 1% DMSO as vehicle. Biochemical assay results are presented as the percent inhibition of specific binding in Table 5.

[5] = biological target: T5, human recombinant serotonin (5-Hydroxytryptamine) 5-HT7 receptor (Homo sapiens, UniProt P34969); assay: Serotonin 5-HT7 radioligand binding ([3H]LSD); conditions: 2 h; read-out: Percent Inhibition of ligand binding Serotonin (1 μM ligand concentration) 5-HT7
T5 construct: expressed in transfected cells; host or cells: CHO cells
Description: To evaluate in radioligand binding assays the activity of compounds of the invention, human recombinant serotonin (5-Hydroxytryptamine) 5-HT7 receptor expressed in Chinese hamster ovary (CHO) cells (Roth, B. L. et al., J. Pharmacol. Exp. Ther. 268:1403, 1994; Shen, Y. et al., J. Biol. Chem. 268:18200, 1993) in a modified Tris-HCl buffer (50 mM Tris-HCl, pH 7.4, 10 mM MgCl2, 0.5 mM EDTA) was used. Compounds of invention were incubated with 5.5 nM [^3H]Lysergic acid diethylamide (LSD) for 2 hours at 25° C. Non-specific binding was estimated in the presence of […] Serotonin (5-HT). Receptor proteins were filtered and washed, the filters were then counted to determine [^3H]LSD specifically bound. Compounds were screened at 1 μM or lower, using 1% DMSO as vehicle. Biochemical assay results are presented as the percent inhibition of specific binding in Table 5.

[6] = biological target: T6, human recombinant serotonin (5-Hydroxytryptamine) 5-HT2C receptor (Homo sapiens, UniProt P28335); assay: Serotonin 5-HT2C radioligand binding ([3H]Mesulergine); conditions: 1 h; read-out: Percent Inhibition of ligand binding Serotonin (1 μM ligand concentration) 5-HT2C
T6 construct: expressed in transfected cells; host or cells: CHO-K1 cells
T6 sequence (P28335 33-458): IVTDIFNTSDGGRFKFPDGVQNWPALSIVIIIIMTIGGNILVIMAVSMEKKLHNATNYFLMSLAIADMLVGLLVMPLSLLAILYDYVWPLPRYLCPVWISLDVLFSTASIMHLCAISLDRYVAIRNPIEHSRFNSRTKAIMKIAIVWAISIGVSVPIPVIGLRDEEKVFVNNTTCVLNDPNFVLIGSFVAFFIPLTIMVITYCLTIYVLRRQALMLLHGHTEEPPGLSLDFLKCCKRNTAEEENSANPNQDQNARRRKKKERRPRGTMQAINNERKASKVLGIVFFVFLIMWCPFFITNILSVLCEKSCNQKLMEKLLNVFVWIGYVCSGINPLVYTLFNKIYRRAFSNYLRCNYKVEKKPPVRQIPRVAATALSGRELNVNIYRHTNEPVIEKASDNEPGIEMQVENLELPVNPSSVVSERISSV
Description: Compounds of the invention were incubated with 1 nM [^3H]Mesulergine for 60 minutes at 25° C. Non-specific binding was estimated in the presence of 1 μM Mianserin. Receptor proteins were filtered and washed, the filters were then counted to determine [^3H]Mesulergine specifically bound. […] Biochemical assay results are presented as the percent inhibition of specific binding in Table 5.

[7] = biological target: T7, human recombinant histamine H1 receptor (Homo sapiens, UniProt P35367); assay: Histamine H1 radioligand binding ([3H]Pyrilamine); conditions: 1 μM; read-out: Binding data (Percentage Inhibition) Histamine Binding (1 μM) H1
T7 construct: expressed in transfected cells; host or cells: CHO cells
Description: To evaluate in radioligand binding assays the activity of compounds of the invention, human recombinant histamine H1 receptor expressed in Chinese hamster ovary (CHO) cells (De Backer, M. D. et al., Biochem. Biophys. Res. Comm. 197(3):1601, 1993) in a modified Tris-HCl buffer (50 mM Tris-HCl, pH 7.4, 2 mM MgCl2, 100 mM NaCl, 250 mM Sucrose) was used. Compounds of the invention were incubated with 1.2 nM [^3H]Pyrilamine for 180 minutes at 25° C. Non-specific binding was estimated in the presence of 1 μM pyrilamine. Receptor proteins were filtered and washed, the filters were then counted to determine [^3H]Pyrilamine specifically bound. […] Biochemical assay results are presented as the percent inhibition of specific binding in Table 3.

T4 sequence (P50406 whole entry): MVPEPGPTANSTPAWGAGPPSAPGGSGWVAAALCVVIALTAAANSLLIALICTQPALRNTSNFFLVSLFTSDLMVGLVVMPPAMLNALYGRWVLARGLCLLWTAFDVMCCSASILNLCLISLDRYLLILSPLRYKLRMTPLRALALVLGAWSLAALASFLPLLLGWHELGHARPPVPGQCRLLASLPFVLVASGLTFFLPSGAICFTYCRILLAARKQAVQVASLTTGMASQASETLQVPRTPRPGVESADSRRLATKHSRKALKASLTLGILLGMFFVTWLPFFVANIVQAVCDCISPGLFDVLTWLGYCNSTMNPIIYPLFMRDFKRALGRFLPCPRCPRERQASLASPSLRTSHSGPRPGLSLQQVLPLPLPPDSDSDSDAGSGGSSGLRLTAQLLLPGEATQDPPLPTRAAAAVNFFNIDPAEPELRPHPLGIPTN
T1 sequence (P28223 whole entry): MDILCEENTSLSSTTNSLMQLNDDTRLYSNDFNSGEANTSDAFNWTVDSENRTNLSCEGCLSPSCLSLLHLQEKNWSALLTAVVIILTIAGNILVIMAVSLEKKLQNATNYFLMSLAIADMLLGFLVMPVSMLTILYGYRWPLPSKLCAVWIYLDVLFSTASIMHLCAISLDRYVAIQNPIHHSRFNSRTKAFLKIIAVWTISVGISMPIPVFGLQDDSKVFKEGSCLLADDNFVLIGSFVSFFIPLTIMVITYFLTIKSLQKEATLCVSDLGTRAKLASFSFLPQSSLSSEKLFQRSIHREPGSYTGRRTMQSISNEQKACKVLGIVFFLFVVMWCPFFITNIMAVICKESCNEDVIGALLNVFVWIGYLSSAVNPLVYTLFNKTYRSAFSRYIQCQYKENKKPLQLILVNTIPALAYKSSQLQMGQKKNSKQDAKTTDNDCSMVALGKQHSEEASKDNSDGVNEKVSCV
T2 sequence (P25021 whole entry): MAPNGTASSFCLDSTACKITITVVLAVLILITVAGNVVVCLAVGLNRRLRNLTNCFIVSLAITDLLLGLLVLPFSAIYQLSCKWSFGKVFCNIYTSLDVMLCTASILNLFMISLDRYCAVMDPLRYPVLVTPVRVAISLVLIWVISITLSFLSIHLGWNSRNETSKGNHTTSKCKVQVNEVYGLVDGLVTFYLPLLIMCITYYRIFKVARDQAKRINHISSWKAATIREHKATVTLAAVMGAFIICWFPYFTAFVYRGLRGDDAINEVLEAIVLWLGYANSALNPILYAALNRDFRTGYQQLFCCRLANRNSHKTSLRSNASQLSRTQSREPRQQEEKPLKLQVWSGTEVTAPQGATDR
T3 sequence (P14416 whole entry): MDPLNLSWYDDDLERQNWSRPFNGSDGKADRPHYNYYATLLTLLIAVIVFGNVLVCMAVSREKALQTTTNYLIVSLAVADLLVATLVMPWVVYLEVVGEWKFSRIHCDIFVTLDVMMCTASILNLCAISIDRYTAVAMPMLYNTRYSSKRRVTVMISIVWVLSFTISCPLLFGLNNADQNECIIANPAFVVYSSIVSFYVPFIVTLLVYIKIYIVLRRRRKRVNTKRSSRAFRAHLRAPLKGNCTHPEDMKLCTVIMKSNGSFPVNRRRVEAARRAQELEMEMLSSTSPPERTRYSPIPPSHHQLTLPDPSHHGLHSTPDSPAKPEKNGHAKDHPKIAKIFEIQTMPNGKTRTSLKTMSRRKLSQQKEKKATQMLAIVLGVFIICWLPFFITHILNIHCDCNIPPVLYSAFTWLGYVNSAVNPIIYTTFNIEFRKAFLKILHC
T7 sequence (P35367 whole entry): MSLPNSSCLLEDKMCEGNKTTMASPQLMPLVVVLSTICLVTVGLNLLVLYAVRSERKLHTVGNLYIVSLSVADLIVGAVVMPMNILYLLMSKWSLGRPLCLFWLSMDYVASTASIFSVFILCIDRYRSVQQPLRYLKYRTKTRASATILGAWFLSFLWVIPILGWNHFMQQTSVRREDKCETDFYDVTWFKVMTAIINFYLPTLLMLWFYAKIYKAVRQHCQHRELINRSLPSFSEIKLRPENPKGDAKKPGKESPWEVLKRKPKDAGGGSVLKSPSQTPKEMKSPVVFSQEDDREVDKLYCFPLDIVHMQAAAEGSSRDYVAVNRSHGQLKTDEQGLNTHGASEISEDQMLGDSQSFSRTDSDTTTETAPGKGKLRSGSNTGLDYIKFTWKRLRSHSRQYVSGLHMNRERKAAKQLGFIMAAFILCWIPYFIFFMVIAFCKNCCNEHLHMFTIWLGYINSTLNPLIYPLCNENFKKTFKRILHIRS
T5 sequence (P34969 whole entry): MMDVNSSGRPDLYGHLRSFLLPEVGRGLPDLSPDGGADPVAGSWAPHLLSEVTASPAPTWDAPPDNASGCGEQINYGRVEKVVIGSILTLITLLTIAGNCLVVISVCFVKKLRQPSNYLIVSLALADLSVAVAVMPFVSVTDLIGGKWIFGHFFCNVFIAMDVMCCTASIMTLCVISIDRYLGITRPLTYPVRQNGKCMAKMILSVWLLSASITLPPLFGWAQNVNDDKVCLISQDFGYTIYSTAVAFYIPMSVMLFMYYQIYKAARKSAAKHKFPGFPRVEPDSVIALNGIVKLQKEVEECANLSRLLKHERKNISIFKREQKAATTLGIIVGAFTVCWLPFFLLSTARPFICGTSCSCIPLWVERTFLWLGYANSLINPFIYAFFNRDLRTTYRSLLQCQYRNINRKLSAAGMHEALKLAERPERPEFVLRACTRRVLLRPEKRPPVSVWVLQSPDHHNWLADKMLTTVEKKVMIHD

SMILES	inhibition at 1 µM [1]	inhibition at 1 µM [2]	inhibition at 1 µM [3]	inhibition at 1 µM [4]	inhibition at 1 µM [5]	inhibition at 1 µM [6]	inhibition at 1 µM [7]
CCC1c2c(c3cc(C)ccc3n2/C=C(\C)c2ccc(F)c(F)c2)CCN1C (stereo not shown) [Compound 176, (E)-9-(2-(3,4-difluorophenyl)prop-1-enyl)-1-ethyl-2,6-dimethyl-2,3,4,9-tetrahydro-1H-pyrido[3,4-b]indole]	81%	26%	-2%	26%	53%	94%	17%
CCC1c2c(c3cc(Cl)ccc3n2C(=O)Cc2ccc(F)cc2)CCN1C (stereo not shown) [Compound 171]	80%	17%	5%	36%	13%	92%	15%
C/C(=C\n1c2c(c3cc(C)ccc31)CCN(C)C2)c1ccc(F)c(F)c1 [Compound 109, 9-(2-(3,4-difluorophenyl)prop-1-enyl)-2,6-dimethyl-2,3,4,9-tetrahydro-1H-pyrido[3,4-b]indole]	96%	67%	12%	72%	96%	97%	20%
CCC1c2c(c3cc(Cl)ccc3n2/C=C(\C)c2ccc(Cl)c(Cl)c2)CCN1C (stereo not shown) [Compound 116, 6-chloro-9-(2-(3,4-dichlorophenyl)prop-1-enyl)-1-ethyl-2-methyl-2,3,4,9-tetrahydro-1H-pyrido[3,4-b]indole]	83%	50%	0%	38%	51%	85%	8%
COc1ccc(C#Cn2c3c(c4cc(Cl)ccc42)CCN(C)C3)cc1F [Compound 155, 6-chloro-9-((3-fluoro-4-methoxyphenyl)ethynyl)-2-methyl-2,3,4,9-tetrahydro-1H-pyrido[3,4-b]indole]	85%	49%	12%	14%	19%	95%	2%
C/C(=C\n1c2c(c3cc(Cl)ccc31)CCN(C)C2)c1ccc(Cl)c(Cl)c1 [Compound 114, 6-chloro-9-(2-(3,4-dichlorophenyl)prop-1-enyl)-2-methyl-2,3,4,9-tetrahydro-1H-pyrido[3,4-b]indole]	93%	75%	8%	42%	87%	95%	30%
CCC1c2c(c3cc(Cl)ccc3n2/C=C(\C)c2ccc(F)c(F)c2)CCN1C (stereo not shown) [Compound 112, 6-chloro-9-(2-(3,4-difluorophenyl)prop-1-enyl)-1-ethyl-2-methyl-2,3,4,9-tetrahydro-1H-pyrido[3,4-b]indole]	82%	38%	12%	61%	67%	94%	33%
C/C(=C\n1c2c(c3cc(Cl)ccc31)CCN(C)C2C)c1ccc(Cl)c(Cl)c1 (stereo not shown) [Compound 115, 6-chloro-9-(2-(3,4-dichlorophenyl)prop-1-enyl)-1,2-dimethyl-2,3,4,9-tetrahydro-1H-pyrido[3,4-b]indole]	85%	71%	0%	40%	74%	86%	50%
Cc1ccc2c(c1)c1c(n2C#Cc2ccc(Cl)cc2)CN(C)CC1 [Compound 130, 9-((4-chlorophenyl)ethynyl)-2,6-dimethyl-2,3,4,9-tetrahydro-1H-pyrido[3,4-b]indole]	91%	51%	-3%	7%	22%	95%	5%
COc1ccc(/C(C)=C/n2c3c(c4cc(C)ccc42)CCN(C)C3)cc1F [Compound 121, 9-(2-(3-fluoro-4-methoxyphenyl)prop-1-enyl)-2,6-dimethyl-2,3,4,9-tetrahydro-1H-pyrido[3,4-b]indole]	96%	50%	21%	33%	94%	102%	9%
